The results in this text go back to publication PMC10307939 (Pharmacology Research & Perspectives, 2023).

The subject of assay [1] is male and female ICR mice. The experiment in a line: Horizontal locomotor activity, 60‐min session. Format: in vivo, mouse. The settings on record: for Effect on locomotor activity: SC, drug alone; for Emax / ED50: Mus musculus, sc; for Emax: 1 h, read-out: E max (95%CL), % Methadone E max; for ED50: read-out: ED50 (95% CL).
In assay [2] the target is T1, human delta‐opioid receptor (Homo sapiens, UniProt P41143). Nature of the assay: Radioligand competition binding, hDOR‐CHO membranes. Particulars: for MOR/DOR (fold selectivity for MOR over DOR): K i at DOR divided by K i at MOR.
Assay [3] deals with T2, mouse kappa opioid receptor (Mus musculus, UniProt P33534). The experiment in a line: biochemical. Format: biochemical. The settings on record: for Emax: read-out: KOR E max.
In assay [4] the target is T2, mouse kappa opioid receptor. The experiment in a line: Radioligand competition binding, mKOR‐CHO membranes. Particulars: for MOR/KOR (fold selectivity for MOR over KOR): K i at KOR divided by K i at MOR.
For assay [5], the system named is male and female ICR mice. The experiment in a line: Naltrexone antagonism of test‐drug locomotor activation. The assay is classed as in vivo, mouse. The settings on record: 1.0 mg/kg naltrexone SC 10 min before test drug.
The target in assay [6] is T1, human delta‐opioid receptor. Nature of the assay: Ligand‐stimulated [35S]GTPγS binding, hDOR‐CHO membranes. The settings on record: for Emax: read-out: DOR E max. Format: biochemical.
In assay [7] the test system is male and female ICR mice. Nature of the assay: Test‐drug antagonism of morphine locomotor activation. Format: in vivo, mouse. The settings on record: test drug SC 10 min before 32 mg/kg SC morphine.
Assay [8] concerns the target T3, mouse mu‐opioid receptor (Mus musculus, UniProt P42866). Nature of the assay: Radioligand competition binding, mMOR‐CHO membranes. Particulars: for Ki: MOR K i, [3H]naloxone, mMOR‐CHO membranes, mean ± SEM (n = 3–6). A general note: Displacement assays read how much labelled ligand stays bound in the presence of the test substance.
For assay [9], the target named is T3, mouse mu‐opioid receptor. The experiment in a line: Ligand‐stimulated [35S]GTPγS binding, mMOR‐CHO membranes. The assay is classed as biochemical. Particulars: for Emax: read-out: MOR E max. On the technique in general: Binding of GTPγS marks nucleotide exchange on a G protein.

Entries after “also recorded” stand apart in the source; their conditions may differ. Where a name gives a salt, the structure may show the parent alone.

`CCC(=O)C(CC(C)N(C)C)(c1ccccc1)c1ccccc1` (racemic) [Methadone, (±) Methadone HCl, reference compound] had a Total locomotor counts in the assay with male and female ICR mice [1] (32 mg/kg SC, 60‐min session) of 7500.1 counts. Further, the “Mean maximum increase in locomotor counts” value in the assay on male and female ICR mice [1] (32 mg/kg vs. saline vehicle) worked out at 5149.8 counts. Besides, in the assay on male and female ICR mice [1], the “Effect on locomotor activity” value is “dose‐dependent increase in locomotor activity”.

By Ki is commonly meant the dissociation constant of the complex between target and ligand, obtained from inhibition or displacement. Low readings indicate a stronger hold on the target, high ones a looser hold on the target. Broadly, the ED50 is the dose at which the effect has come halfway, by size or by number of responders. A word on the EC50: it is the concentration at which the effect is half-maximal. A low value points to greater potency. As to `C=C[C@@H]1[C@H]2CCC[C@]1(c1cccc(O)c1)CCN2CCc1ccccc1` [DC‐1‐76.1, 3‐((1R,5S,9S)‐2‐phenethyl‐9‐vinyl‐2‐azabicyclo[3.3.1]nonan‐5‐yl)phenol], in assay [2], the Ki was 3390 ± 268 nM and the “MOR/DOR (fold selectivity for MOR over DOR)” value stood at 1773.3 fold. Moreover, in the assay on male and female ICR mice [1], the Emax was 34.3% and the median effective dose (ED50) turned out to be 0.72 mg/kg. Further, the “KOR E max” value in [3] is “No stim”. Further, in [4], the inhibition constant Ki was 52.9 ± 1.11 nM and the “MOR/KOR (fold selectivity for MOR over KOR)” value is reported as 27.7 fold. For the same compound, in the assay on male and female ICR mice [5], the “Effect of naltrexone pretreatment on locomotor‐activating dose of test drug” value (“Effect of naltrexone pretreatment” for short) is “significantly attenuated”. Besides, in assay [6], the midpoint of the response, the EC50, lay at 1160 ± 214 nM and the Emax is -0.7 ± 2.12%.

On to `C=C[C@H]1[C@H]2CCC[C@]1(c1cccc(O)c1)CCN2CCc1ccccc1` [DC‐1‐76.2, 3‐((1R,5S,9R)‐2‐phenethyl‐9‐vinyl‐2‐azabicyclo[3.3.1]nonan‐5‐yl)phenol], for which, in [2], the inhibition constant (Ki) was 347 ± 45.6 nM and the “MOR/DOR (fold selectivity for MOR over DOR)” value is on record as 698.5 fold. In the assay with male and female ICR mice [1], the Emax came to 87.6% and the ED50 turned out to be 0.47 mg/kg. In assay [3], the “KOR E max” value is “No stim”. For the same compound, in assay [4], the affinity, expressed as Ki, was 44 ± 2.98 nM and the “MOR/KOR (fold selectivity for MOR over KOR)” value was 88.5 fold. For the same compound, the “Effect of naltrexone pretreatment” value in the assay on male and female ICR mice [5] is “significantly attenuated”. Moreover, in assay [6], the EC50 was determined as 160 ± 142 nM and the Emax was -6.34 ± 0.78%.

Consider `C/C=C\[C@H]1[C@H]2CCC[C@]1(c1cccc(O)c1)CCN2CCc1ccccc1` [DC‐1‐90.2, 3‐((1R,5S,9R)‐2‐phenethyl‐9‐((Z)‐prop‐1‐en‐1‐yl)‐2‐azabicyclo[3.3.1]nonan‐5‐yl)phenol], for which, in assay [2], the Ki was 430 ± 41.7 nM and the “MOR/DOR (fold selectivity for MOR over DOR)” value came out at 235.0 fold. The “KOR E max” value in assay [3] is given as “No stim”. Besides, in [4], the affinity corresponds to a Ki of 34.5 ± 0.77 nM and the “MOR/KOR (fold selectivity for MOR over KOR)” value was 18.8 fold. Further, in [6], the EC50 was 253 ± 133 nM and the Emax is -6.97 ± 0.46%.

Take `C/C=C\[C@@H]1[C@H]2CCC[C@]1(c1cccc(O)c1)CCN2CCc1ccccc1` [DC‐1‐128.1, 3‐((1R,5S,9S)‐2‐phenethyl‐9‐((Z)‐prop‐1‐en‐1‐yl)‐2‐azabicyclo [3.3.1]nonan‐5‐yl)phenol]: in [2], the affinity, expressed as Ki, was 318 ± 47 nM and the “MOR/DOR (fold selectivity for MOR over DOR)” value stood at 565.2 fold. In the assay with male and female ICR mice [1], the Emax was found to be 80.1% and the 50% effective dose (ED50) was 0.19 mg/kg. Moreover, the “KOR E max” value in assay [3] is “no KOR activation; also recorded: No stim”. Also, in assay [4], the inhibition constant Ki is 63.3 ± 7.43 nM and the “MOR/KOR (fold selectivity for MOR over KOR)” value is given as 112.6 fold. Moreover, in the assay on male and female ICR mice [5], the “Effect of naltrexone pretreatment” value is listed as “significantly attenuated”. Moreover, in assay [6], the EC50 came out at 503 ± 118 nM and the Emax was determined as 31.4 ± 2.23%. Moreover, in [6] (higher potency at MOR than at DOR), the “Fold difference in [35S]GTPγS potency, MOR versus DOR” value is on record as “more than 60 fold”.

For `CCC[C@H]1[C@@H]2CCC[C@@]1(c1cccc(O)c1)CCN2CCc1ccccc1` [EG‐1‐203, 3‐((1S,5R,9R)‐2‐phenethyl‐9‐propyl‐2‐azabicyclo[3.3.1]nonan‐5‐yl)phenol], the inhibition constant (Ki) in [2] turned out to be 66.5 ± 7.7 nM; in [4], 22.3 ± 4.66 nM; at mouse mu‐opioid receptor [8], 0.761 ± 0.031 nM. Further, in assay [2], the “MOR/DOR (fold selectivity for MOR over DOR)” value is 87.4 fold. Besides, the Emax was 13% in the assay on male and female ICR mice [1]; -3.49 ± 0.67% in assay [3]; -11.6 ± 3.08% in [6]; 4.79 ± 0.6% on mouse mu‐opioid receptor [9]. Further, the ED50 in the assay with male and female ICR mice [1] came to 5.42 mg/kg. For the same compound, the EC50 in assay [3] stood at 125 ± 88.7 nM; in assay [6], 37 ± 17.7 nM; on mouse mu‐opioid receptor [9] it was 24.2 ± 13.8 nM. Further, the “MOR/KOR (fold selectivity for MOR over KOR)” value in [4] is 29.3 fold. Further, the “Effect of test‐drug pretreatment on locomotor‐activating effects of morphine” value with male and female ICR mice [7] was “significantly attenuated”.

On to `OC/C=C/[C@H]1[C@@H]2CCC[C@@]1(c1cccc(O)c1)CCN2CCc1ccccc1` [EG‐1‐230, 3‐((1S,5R,9R)‐9‐((E)‐3‐hydroxyprop‐1‐en‐1‐yl)‐2‐phenethyl‐2‐azabicyclo[3.3.1]nonan‐5‐yl)phenol], for which the Ki in assay [2] came to 1010 ± 147 nM; in [4], 45.9 ± 7.08 nM; at mouse mu‐opioid receptor [8], 4.22 ± 0.177 nM. In addition, the “MOR/DOR (fold selectivity for MOR over DOR)” value in assay [2] was determined as 238.5 fold. The Emax in the assay on male and female ICR mice [1] was 2.2%; in assay [3], -3.97 ± 0.65%; in assay [6], -10.6 ± 3.58%; on mouse mu‐opioid receptor [9], 0.67 ± 0.79%. In addition, the “Effect on locomotor activity” value with male and female ICR mice [1] was “inactive when administered alone”. The 50% effective concentration (EC50) in assay [3] is 20.7 ± 5.6 nM; in assay [6], 517 ± 366 nM; at mouse mu‐opioid receptor [9], 24.1 ± 12 nM. Besides, the “MOR/KOR (fold selectivity for MOR over KOR)” value in [4] amounted to 10.9 fold. For the same compound, the “Effect of test‐drug pretreatment on locomotor‐activating effects of morphine” value in the assay with male and female ICR mice [7] was “significantly attenuated”.

Regarding `OCC[C@H]1[C@@H]2CCC[C@@]1(c1cccc(O)c1)CCN2CCc1ccccc1` [JL‐2‐39, 3‐((1S,5R,9R)‐9‐(2‐hydroxyethyl)‐2‐phenethyl‐2‐azabicyclo[3.3.1]nonan‐5‐yl)phenol], in [2], the Ki stood at 473 ± 41.2 nM and the “MOR/DOR (fold selectivity for MOR over DOR)” value was found to be 1199.2 fold. For the same compound, in the assay with male and female ICR mice [1], the Emax was found to be 87.1% and the ED50 was determined as 2.85 mg/kg. In addition, the “Fold less potent than DC‐1‐76.1 in vivo (locomotor activity)” value in the assay on male and female ICR mice [1] (relative to DC‐1‐76.1) was ~ 4 fold. Also, the “KOR E max” value in assay [3] is “No stim”. In addition, in assay [4], the Ki was 17.1 ± 2.22 nM and the “MOR/KOR (fold selectivity for MOR over KOR)” value is listed as 43.4 fold. The “Effect of naltrexone pretreatment” value with male and female ICR mice [5] was “significantly attenuated”. The compound also registered a Ki at mouse mu‐opioid receptor [8] of 0.394 ± 0.035 nM. The “Fold higher MOR affinity than DC‐1‐76.1” value on mouse mu‐opioid receptor [8] (relative to DC‐1‐76.1) is recorded as ~ 5 fold. At mouse mu‐opioid receptor [9], the EC50 was 7.09 ± 3.7 nM and the Emax was found to be 13 ± 1.48%. The “Fold more potent than DC‐1‐76.1 in vitro ([35S]GTPɣS binding, MOR CHO cells)” value on mouse mu‐opioid receptor [9] (relative to DC‐1‐76.1) was ~ 5 fold.

Consider `CN1c2ccccc2C(NCCCCCCC(=O)O)c2ccc(Cl)cc2S1(=O)=O` (centres unmarked) [Tianeptine, reference compound], for which the Ki in assay [2] is 2830 ± 416 nM. In assay [3], the “KOR E max” value is given as “No stim”. For the same compound, the “Effect of naltrexone pretreatment” value with male and female ICR mice [5] is “significantly attenuated”. On mouse mu‐opioid receptor [8], this compound returned an inhibition constant Ki of 78.2 ± 9.93 nM. Besides, at mouse mu‐opioid receptor [9], the EC50 was 6440 ± 622 nM and the Emax is 110 ± 3.6%.
